According to patent US9657059B2, “Immune system modulators” (Canimguide Therapeutics AB, priority 2013, dated 2017):

Key:
immune cells = assay: Binding of albumin fragments to immune cells on the Artificial Cell Surface column (ACS), MALDI-TOF; parameters: species or system human
Description: The existence of albumin sequences having neo-structures that bind to immune cells was identified using a human ex vivo model based on affinity chromatography over an “Artificial Cell Surface Column” (ACS). The effect of different albumin fragments on IL-2 induced proliferation of human immune cells (PBMCs) was analyzed in the ACS system (see Example 9). Briefly, PBMCs were cultured for seven days in the presence of IL-2 and the various synthetically prepared albumin fragments. Proliferation was measured as incorporation of ^3H thymidine during the final 18 hours.
Some of these fragments can have immunomodulatory activity similar to P3028, can bind to immune cells similar to P3028, and/or can bind to immunomodulatory antibodies that recognized P3028. […] Table 1 provides a listing of trypsin-generated fragments of albumin, which bind to immune cells in the ACS system, as detected by MALDI-TOF analysis.
[…] Again, the immune cell binding peptides were identified by comparing adsorbed and unadsorbed peptide solutions using the MALDI TOF technique.

[1] = tested on: Artificial Cell Surface (ACS): biotinylated cell surface proteins of PBMCs; assay: Adsorption of enzyme-fragmented dHSA peptides by artificial cell surface (ACS) column, MALDI-TOF; format: binding, human
Description: An artificial cell surface (ACS) was prepared by selectively biotinylating cell surface structures of PBMCs and after lysing the cells binding the biotinylated proteins to streptavidin columns (see Example 17 for further description of the ACS). The mixture of peptides obtained after trypsination was adsorbed by ACS and the binding peptides were identified by comparing adsorbed and unabsorbed peptide solutions using the MALDI TOF ms technique. Based on their degree of binding and their spatial relation to previously identified immunoregulatory structures, four new peptides were selected to be synthesized and investigated for their immunoregulatory activity, primarily the effect on the proliferative response to IL-2.
First, biotinylated cell surface proteins were prepared. Buffy coats generated from 450 ml blood each were collected from 4 healthy donors. Erythrocytes were removed by sedimentation on 2% dextran T500 solution (Amersham Pharmacia Biotech AB, Uppsala Sweden) in 0.9% NaCl. Mononuclear cells (PBMC) were then isolated by Ficoll-Paque Plus (GE Healthcare BioscienceAB Sweden) density gradient centrifugation. The PBMCs were then suspended in phosphate buffered saline (PBS) containing Ca and Mg (GIBCO) at a concentration of 10×10^6/ml. EZ Link Sulfo-NHS-biotin (Pierce USA) was added at a final concentration of 0.2 mg/ml and the mixture incubated on a shaker at room temperature for 10 min. Excess biotin was then removed by washing the PBMC in PBS. Biotinylated PBMC were then lysed by adding 1.0 ml ice-cold lysing buffer (50 mM Tris-HCL, pH 7.5, with 0.15 MNaCl, 5 mM MgCl2 containing 100 mM Octyl glucoside and 1 mM Phenylmethylsulfonyl fluoride) per 2×10^7 pelleted cells with gentle shaking, then incubated for 30 min. on ice. Debris was removed by centrifugation at 5000×g at 4° C. for 10 min and the supernatants were collected and pooled from all four donors. The lysate was then stored at −70° C. in polypropylene plastic tubes.
This amount of lysate corresponds to 36×10^7 mononuclear cells. It was added to a 1 ml Hitrap Streptavidin HP affinity column (Amersham Biosciences). To block possible remaining free biotin, 5 ml of 0.1 M glycine (Sigma) was added to the column. Unsaturated streptavidin on the column was then reacted with 150 ug biotin (Sigma) in binding buffer. The column was carefully washed with PBS and stored in PBS with 0.1% NaN3 at 4° C. until use.
27 ml biotinylated cell lysate in binding buffer (corresponding to 54×10^7 mononuclear cells) was added to 1.5 ml washed Streptavidin Sepharose HP (Amersham Biosciences). To block possible remaining free biotin, 25 ml of 0.1 M glycine (Sigma) was added to the Streptavidin Sepharose. Unsaturated streptavidin was then reacted with 225 ug biotin (Sigma) in binding buffer. The Streptavidin Sepharose was carefully washed in PBS. One ml of the biotinylated cell lysate coupled Streptavidin Sepharose was then packed in an empty column (Tricorn Empty High Performance Column, Amersham Bioscience) and washed with phosphate buffered saline (PBS) containing Ca^2+ and Mg^2+ (GIBCO).
Digestion with trypsin or ASP-N was performed as follows. Freeze dried dHSA (0.5 mg) was reconstituted in 25 mM NH4HCO3, pH 8, containing […] sequencing grade modified trypsin (Promega Corporation, WI) or […] Endoproteinase ASP-N(Sigma) and incubated at 37° C. overnight. To remove unfragmented albumin and enzyme, the sample was ultra filtered through an Amicon Ultra 4 (mw cut-off of 5000) or a Centriplus (mw cut-off 10000) centrifugal filter (Millipore AB, Solna, Sweden). The filtrate, containing fragmented dHSA without enzymes, was collected and diluted with PBS with Ca and Mg (GIBCO).
dHSA was trypsinated, and the mixture of peptides obtained after trypsination was adsorbed by ACS. Two ml of enzyme-fragmented dHSA in PBS, corresponding to a total of 0.2 mg protein, was passaged over the ACS column. […]

[2] = trypsin-generated albumin fragments, MALDI-TOF
[3] = trypsin-generated albumin fragments
[4] = Asp-N-generated fragments of denatured human serum albumin, MALDI TOF
[5] = Asp-N-generated albumin fragments

Question: Which results are given for “194 (KYLYEIAR; listed as Homo sapiens) [compound 194]”?
Answer: Percent Absorbed (immune cells; [2]): 71%; Percent Absorbed [1, 3]: 71%

Question: Which results are given for “195 (KVPQVSTPTLVEVSR; listed as Homo sapiens) [compound 195]”?
Answer: Percent Absorbed (immune cells; [2]): 64%; Percent Absorbed [1, 3]: 64%

Question: For “196 (VFDEFKPLVEEPQNLIK; listed as Homo sapiens) [compound 196]”, which “Percent Absorbed” value (immune cells; [2]) is on record?
Answer: 60%

Question: And the “Percent Absorbed” value [1, 3]?
Answer: 60%

Question: Which results are given for “197 (VPQVSTPTLVEVSR; listed as Homo sapiens) [compound 197]”?
Answer: Percent Absorbed (immune cells; [2]): 59%; Percent Absorbed [1, 3]: 59%

Question: Which results are given for “198 (RPCFSALEVDETYVPK; listed as Homo sapiens) [compound 198]”?
Answer: Percent Absorbed (immune cells; [2]): 42%; Percent Absorbed [1, 3]: 42%

Question: How did the “Percent Absorbed” value (immune cells; [2]) turn out when “199 (FQNALLVR; listed as Homo sapiens) [compound 199]” was run?
Answer: 41%

Question: What about the “Percent Absorbed” value [1, 3] of the same substance?
Answer: 41%

Question: For “200 (SLHTLFGDK; listed as Homo sapiens) [compound 200]”, which “Percent Absorbed” value (immune cells; [2]) is on record?
Answer: 36%

Question: And the “Percent Absorbed” value [1, 3]?
Answer: 36%

Question: Which “Percent Absorbed” value (immune cells; [2]) does the source give for “201 (LKECCEKPLLEK; listed as Homo sapiens) [compound 201]” here?
Answer: 36%

Question: What about the “Percent Absorbed” value [1, 3] of the same substance?
Answer: 36%

Question: How did the “Percent Absorbed” value (immune cells; [2]) turn out when “202 (LCTVATLR; listed as Homo sapiens) [compound 202]” was run?
Answer: 35%

Question: And the “Percent Absorbed” value [1, 3]?
Answer: 35%

Question: Which “Percent Absorbed” value (immune cells; [2]) does the source give for “203 (YLYEIAR; listed as Homo sapiens) [compound 203]” here?
Answer: 34%

Question: And the “Percent Absorbed” value [1, 3]?
Answer: 34%

Question: For “204 (CCAAADPHECYAK; listed as Homo sapiens) [compound 204]”, which “Percent Absorbed” value (immune cells; [2]) is on record?
Answer: 32%

Question: What about the “Percent Absorbed” value [1, 3] of the same substance?
Answer: 32%

Question: With “205 (AAFTECCQAADK; listed as Homo sapiens) [compound 205]” as the substance, how does the “Percent Absorbed” value (immune cells; [2]) read?
Answer: 29%

Question: And the “Percent Absorbed” value [1, 3]?
Answer: 29%

Question: With “206 (CCTESLVNR; listed as Homo sapiens) [compound 206]” as the substance, how does the “Percent Absorbed” value (immune cells; [2]) read?
Answer: 26%

Question: What about the “Percent Absorbed” value [1, 3] of the same substance?
Answer: 26%

Question: What does the source list for “207 (QEPERNECFLQHK; listed as Homo sapiens) [compound 207]”?
Answer: Percent Absorbed (immune cells; [2]): 25%; Percent Absorbed [1, 3]: 25%

Question: How did the “Percent Absorbed” value (immune cells; [2]) turn out when “208 (AVMDDFAAFVEK; listed as Homo sapiens) [compound 208]” was run?
Answer: 23%

Question: What about the “Percent Absorbed” value [1, 3] of the same substance?
Answer: 23%

Question: With “209 (NECFLQHK; listed as Homo sapiens) [compound 209]” as the substance, how does the “Percent Absorbed” value (immune cells; [2]) read?
Answer: 22%

Question: What about the “Percent Absorbed” value [1, 3] of the same substance?
Answer: 77%

Question: Which results are given for “210 (QNCELFEQLGEYK; listed as Homo sapiens) [compound 210]”?
Answer: Percent Absorbed (immune cells; [2]): 20%; Percent Absorbed [1, 3]: 20%

Question: How did the “Percent Absorbed” value (immune cells; [2]) turn out when “211 (QEPERNECFLQHK; listed as Homo sapiens) [compound 211]” was run?
Answer: 18%

Question: And the “Percent Absorbed” value [1, 3]?
Answer: 18%

Question: What does the source list for “212 (VHTECCHGDLLECADDR; listed as Homo sapiens) [compound 212]”?
Answer: Percent Absorbed (immune cells; [2]): 13%; Percent Absorbed [1, 3]: 13%

Question: How did the “Percent Absorbed” value (immune cells; [2]) turn out when “213 (FKDLGEENFK; listed as Homo sapiens) [compound 213]” was run?
Answer: 8%

Question: And the “Percent Absorbed” value [1, 3]?
Answer: 8%

Question: For “214 (YICENQDSISSK; listed as Homo sapiens) [compound 214]”, which “Percent Absorbed” value (immune cells; [2]) is on record?
Answer: 3%

Question: And the “Percent Absorbed” value [1, 3]?
Answer: 3%

Question: What does the source list for “215 (LDELRDEGK; listed as Homo sapiens) [compound 215]”?
Answer: Percent Absorbed (immune cells; [2]): 2%; Percent Absorbed [1, 3]: 2%

Question: “216 (DDNPNLPR; listed as Homo sapiens) [compound 216]” was tested. Which “Percent Absorbed” value (immune cells; [2]) did it give?
Answer: 1%

Question: What about the “Percent Absorbed” value [1, 3] of the same substance?
Answer: 1%

Question: Which “Percent Absorbed” value (immune cells; [4]) does the source give for “217 (DHVKLVNEVTEFAKTCVA; listed as Homo sapiens) [compound 217]” here?
Answer: 100%

Question: What about the “Percent Absorbed” value [1, 5] of the same substance?
Answer: 100%

Question: Which results are given for “218 (DDKETCFAEEGKKLVAASQAALGL; listed as Homo sapiens) [compound 218]”?
Answer: Percent Absorbed (immune cells; [4]): 100%; Percent Absorbed [1, 5]: 100%

Question: Which “Percent Absorbed” value (immune cells; [4]) does the source give for “219 (DRVTKCCTESLVNRRPCFSALEV; listed as Homo sapiens) [compound 219]” here?
Answer: 87%

Question: And the “Percent Absorbed” value [1, 5]?
Answer: 87%

Question: “220 (DETYVPKEFNAETFTHA; listed as Homo sapiens) [compound 220]” was tested. Which “Percent Absorbed” value (immune cells; [4]) did it give?
Answer: 86%

Question: And the “Percent Absorbed” value [1, 5]?
Answer: 86%

Question: What does the source list for “221 (DSISSKLKECCEKPLLEKSHCIAEVEN; listed as Homo sapiens) [compound 221]”?
Answer: Percent Absorbed (immune cells; [4]): 65%; Percent Absorbed [1, 5]: 65%

Question: With “222 (DKLCTVATLRETYGEM; listed as Homo sapiens) [compound 222]” as the substance, how does the “Percent Absorbed” value (immune cells; [4]) read?
Answer: 65%

Question: And the “Percent Absorbed” value [1, 5]?
Answer: 65%

Question: What does the source list for “223 (YSVVLLLRLAKTYETTLEKCCAAADPHECYAKVF; listed as Homo sapiens) [compound 223]”?
Answer: Percent Absorbed (immune cells; [4]): 100%; Percent Absorbed [1, 5]: 100%

Question: How did the “Percent Absorbed” value (immune cells; [4]) turn out when “224 (KLCTVATLRETYGEMADCCAKQEPERNECFLQHK; listed as Homo sapiens) [compound 224]” was run?
Answer: 100%

Question: What about the “Percent Absorbed” value [1, 5] of the same substance?
Answer: 100%

Question: For “225 (ICTLSEKERQIKKQTALVELVKHKPKATKEQLKAVM; listed as Homo sapiens) [compound 225]”, which “Percent Absorbed” value (immune cells; [4]) is on record?
Answer: 100%

Question: What about the “Percent Absorbed” value [1, 5] of the same substance?
Answer: 100%

Question: Which results are given for “226 (LAKYICENQDSISSKLKECCEKPLLEKHCIAEVEN; listed as Homo sapiens) [compound 226]”?
Answer: Percent Absorbed (immune cells; [4]): 100%; Percent Absorbed [1, 5]: 100%

Question: Which “Percent Absorbed” value (immune cells; [4]) does the source give for “227 (VFLGMFLYEYARRHPDYSVVLLLRLAKTYETTLEKCCAAA; listed as Homo sapiens) [compound 227]” here?
Answer: 100%

Question: And the “Percent Absorbed” value [1, 5]?
Answer: 100%

Question: “228 (LGEENFKALVLIAFAQYLQQCPFEDHVKLVNEVTEFAKTCVA; listed as Homo sapiens) [compound 228]” was tested. Which “Percent Absorbed” value (immune cells; [4]) did it give?
Answer: 100%

Question: And the “Percent Absorbed” value [1, 5]?
Answer: 100%

Question: What does the source list for “229 (RVTKCCTESLVNRRPCFSALEVDETYVPKEFNAETFTFHA; listed as Homo sapiens) [compound 229]”?
Answer: Percent Absorbed (immune cells; [4]): 100%; Percent Absorbed [1, 5]: 100%

Question: “230 (YLSVVLNQLCVLHEKTPVSDRVTKCCCTESLVNRRPFSALEV; listed as Homo sapiens) [compound 230]” was tested. Which “Percent Absorbed” value (immune cells; [4]) did it give?
Answer: 37%

Question: And the “Percent Absorbed” value [1, 5]?
Answer: 37%
